Source: patent US10834943B2, “Organic compounds having taste-modifying properties” (GIVAUDAN SA, priority 2013, dated 2020)

Test: Mango-flavoured beverage evaluated by a panel of experienced tasters
Details: 0.5 ppm dosed to mango drink (mango flavour 0.05% w/w, mango juice 0.18% w/w, sugar 8% w/w, citric acid 0.1% w/w)
Experimental: A mango-flavoured beverage was prepared using a standard mango flavour (0.05% w/w), mango juice (0.18% w/w), sugar (8% w/w) and citric acid (0.1% w/w).

Row | SMILES | taste of the mango drink versus the reference drink (panel agreement)
1 | CC/C=C\C/C=C\C/C=C\CCCCCCCC(=O)NC(C)C(=O)OC (centres unmarked) [Example 7, Methyl 2-((9Z,12Z,15Z)-octadeca-9,12,15-trienamido)propanoate] | more fully, more fatty than the reference drink
2 | CCCCC/C=C\C/C=C\CCCCCCCC(=O)N1CCCC1C(=O)OC (centres unmarked) [Example 6, Methyl 1-((9Z,12Z)-octadeca-9,12-dienoyl)pyrrolidine-2-carboxylate] | more fruity and peach-like than the reference drink
